Test results reported in PMC11882969 (Nature Communications, 2025).
Where “and” joins values, the source holds several entries; their conditions need not be identical. Identical values can stand only once. Like-named read-outs stand apart in the source and are kept apart here.

What was measured:
AmpC β-lactamase = AmpC β-lactamase (Escherichia coli, UniProt P00811); type: biochemical; details: for AMPC activity (DMSO = 100), replicate means: Rep 1-3 mean, sheet FigureS2c; for AmpC inhibition: Log[7019], sheet FigS2d
Procedure: Enzyme inhibition assays to test for colloidal inhibition were performed at room temperature using CLARIOstar Plate Reader (BMG Labtech). Samples were prepared in 50 mM KPi buffer, pH 7.0 with final DMSO concentration at 1% (v/v). Compounds were incubated with 2 nM AmpC β-lactamase (AmpC) or Malate dehydrogenase (MDH) for 5 min. AmpC reactions were initiated by the addition of 50 μM CENTA chromogenic substrate (219475, Calbiochem). […] MDH reactions were initiated by the addition of 200 μM nicotinamide adenine dinucleotide (NADH) (54839, Sigma Aldrich) and 200 μM oxaloacetic acid (324427, Sigma Aldrich). The change in absorbance was monitored at 340 nm for 60 sec. Initial rates were divided by the DMSO control rate to determine % enzyme activity. […]. Data was analyzed using GraphPad Prism 9.1.

Malate dehydrogenase = experiment: Enzyme inhibition counter-screen, MDH; type: biochemical; details: for MDH activity (DMSO = 100), replicate means: Rep 1-3 mean, sheet FigureS2c; for MDH inhibition: Log[7019], sheet FigS2d
Procedure: Enzyme inhibition assays to test for colloidal inhibition were performed at room temperature using CLARIOstar Plate Reader (BMG Labtech). Samples were prepared in 50 mM KPi buffer, pH 7.0 with final DMSO concentration at 1% (v/v). Compounds were incubated with 2 nM AmpC β-lactamase (AmpC) or Malate dehydrogenase (MDH) for 5 min. AmpC reactions were initiated by the addition of 50 μM CENTA chromogenic substrate (219475, Calbiochem). […] MDH reactions were initiated by the addition of 200 μM nicotinamide adenine dinucleotide (NADH) (54839, Sigma Aldrich) and 200 μM oxaloacetic acid (324427, Sigma Aldrich). The change in absorbance was monitored at 340 nm for 60 sec. Initial rates were divided by the DMSO control rate to determine % enzyme activity. Each compound was screened at 100μM in triplicate for three independent experiments, if enzyme inhibition greater than 30% was observed, 8-point half-log concentrations were performed in triplicate for three independent experiments. Data was analyzed using GraphPad Prism 9.1.

CB1R = experiment: Bimane fluorescence of labeled CB1R; type: biochemical, human; details: 10 μM ligand; apo 459 nm
Procedure: A minimal cysteine version of CB1R was generated[85] where all the cysteine residues (except C256 and C264) were mutated to alanine. […] Excess label was removed using size exclusion chromatography on a Superdex 200 10/300 Increase column in 20 mM HEPES pH 7.5, 100 mM NaCl and 0.01% MNG/0.001% CHS. Bimane-labeled CB1R at […] was incubated with ligands (10 μM) for one hour at room temperature. Fluorescence data was collected at room temperature in a 150 μL cuvette with a FluorEssence v3.8 software on a Fluorolog instrument (Horiba) in photon-counting mode. Bimane fluorescence was measured by excitation at 370 nm with excitation and emission bandwidth passes of 4 nm. The emission spectra were recorded from 410 to 510 nm with 1 nm increment and 0.1 s integration time.

mice [1] = experiment: Tail flick, 50 °C water bath; type: in vivo, mouse; details: for analgesic response normalised to baseline, WT vs CB1R KO (Figure5d), individual animals / Response relative to Baseline, individual animals (FigS11c): 0.2 mg/kg; for Response relative to Baseline, individual animals (FigS11c): test not printed on the sheet; for Response relative to baseline (baseline about 100): individual animals, sheet Figure7b, test not given
mice [2] = experiment: Rotarod test; type: in vivo, mouse; details: for dose showing locomotor deficits or sedation, rotarod: i.p.
mice [3] = experiment: Acetone test, cold allodynia after spared nerve injury; type: in vivo, mouse; details: for effect on acetone-induced nocifensive behaviors: spared nerve injury
Procedure: Mice were placed on a wire mesh and thirty min after an i.p. injection of the compounds we applied a drop (50 μL) of acetone on the ventral aspect of the hindpaw, 5 times every 30 sec. We recorded the number of nocifensive behaviors (paw lifts/licks/shakes/bites) over the 5 applications.

hCB2 [4] = target: T1, hCB2 (Homo sapiens, UniProt P34972); experiment: TRUPATH BRET2 GoA dissociation, HEK293T; type: cell-based; design: expressed in transfected cells; host or cells: HEK293T cells (ATCC: CRL-3216), transient co-transfection; details: for functional response, concentration-response point (FigS7e, normalized): Log[drug], replicate columns
hCB2 [5] = target: T1, hCB2; experiment: Tango β-arrestin-2 recruitment, HTLA cells, CB2R; type: cell-based; design: expressed in transfected cells; host or cells: HEK293 cells stably expressing human CB2R (Laboratory of Ken Mackie); details: hCB2
Procedure: The Tango β-arrestin-2 recruitment assays were performed as described[83]. In brief, HTLA cells (a gift from the laboratory of R. Axel) were transiently transfected with human CB1R or CB2R Tango DNA construct overnight in DMEM supplemented with 10 % FBS, 100 µg ml−1 streptomycin and 100 U ml−1 penicillin. The transfected cells were then plated into poly-L-lysine-coated 384-well white clear-bottom cell culture plates in DMEM containing 1% dialysed FBS at a density of 10,000–15,000 cells per well. After incubation for 6 h, the plates were added with drug solutions prepared in DMEM containing 1% dialysed FBS for overnight incubation. On the day of assay, medium and drug solutions were removed and 20 µl per well of BrightGlo reagent (Promega) was added. The plates were further incubated for 20 min at room temperature and counted using the Wallac TriLux Microbeta counter (PerkinElmer). The results were analysed using GraphPad Prism 9. Each experiment was performed in triplicate and functional IC50 values were determined from the mean of three independent experiments.

T1 sequence (P34972 whole entry): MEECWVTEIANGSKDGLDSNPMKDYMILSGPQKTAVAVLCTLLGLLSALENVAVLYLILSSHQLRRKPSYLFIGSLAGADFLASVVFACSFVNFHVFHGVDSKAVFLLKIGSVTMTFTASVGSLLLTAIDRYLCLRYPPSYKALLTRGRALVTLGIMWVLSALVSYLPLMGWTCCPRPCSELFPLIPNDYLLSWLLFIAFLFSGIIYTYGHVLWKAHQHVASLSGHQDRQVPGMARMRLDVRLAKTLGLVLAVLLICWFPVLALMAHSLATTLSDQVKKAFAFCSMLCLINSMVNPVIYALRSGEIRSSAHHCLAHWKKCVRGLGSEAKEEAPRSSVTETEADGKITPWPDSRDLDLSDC
Sequence of AmpC β-lactamase (P00811 20-377): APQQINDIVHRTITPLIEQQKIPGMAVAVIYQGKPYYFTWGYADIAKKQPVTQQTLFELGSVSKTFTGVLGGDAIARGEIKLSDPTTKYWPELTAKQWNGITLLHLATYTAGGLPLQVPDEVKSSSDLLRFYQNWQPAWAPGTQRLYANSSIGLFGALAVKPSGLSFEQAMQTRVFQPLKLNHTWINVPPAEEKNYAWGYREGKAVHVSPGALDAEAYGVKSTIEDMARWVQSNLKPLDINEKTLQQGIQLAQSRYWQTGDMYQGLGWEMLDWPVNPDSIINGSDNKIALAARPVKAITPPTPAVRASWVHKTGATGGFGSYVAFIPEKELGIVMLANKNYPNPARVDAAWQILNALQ

## COC(=O)C(NC(=O)c1cc(C)n(-c2cccc(F)c2)n1)c1cccs1 (stereo not shown) [‘51486]
AmpC β-lactamase
  AMPC activity (DMSO = 100), replicate means: 133.645 and 104.886 and 117.294
Malate dehydrogenase
  MDH activity (DMSO = 100), replicate means: 74.7583 and 87.0115 and 96.3724

## Cn1nc(-c2nnc(C(C)(C)Oc3ccc(Cl)cc3)o2)c2ccccc2c1=O [‘0450]
AmpC β-lactamase
  AMPC activity (DMSO = 100), replicate means: 142.819 and 64.3814 and 173.064
Malate dehydrogenase
  MDH activity (DMSO = 100), replicate means: 124.427 and 98.8422 and 101.682

## COC(=O)[C@@](C)(NC(=O)c1cc(C)n(-c2cccc(C(F)(F)F)c2)n1)c1cccs1 [‘1350]
CB1R
  bimane spectrum λmax: 463 nm
Mice [1]; 0.05 and 0.1 mg/kg plus morphine 3.0 mg/kg i.p.
  tail flick latency on cotreatment with morphine: significantly longer tail-flick latencies than did mice injected with morphine alone
Mice [1]; CB1R KO mice
  effect of CB1R knockout on analgesia, tail flick: completely blocked the analgesic effect
  analgesic response normalised to baseline, WT vs CB1R KO (Figure5d), individual animals: 106.345 and 98.767 and 101.721 and 166.196 and 107.501
Mice [1]; CB2R KO mice
  Response relative to Baseline, individual animals (FigS11c): 164.985 and 191.573 and 174.006 and 295.549 and 230.504 and 308.843 and 149.555 and 202.493 and 243.323 and 186.825
Mice [1]; Dose 0.05 mg/kg
  tail flick response normalised to baseline (Figure4a), individual animals: 119.013 and 100.323 and 160.799 and 150.926 and 127.123
Mice [1]; Dose 0.1 mg/kg
  tail flick response normalised to baseline (Figure4a), individual animals: 155.51 and 183.368 and 185.307 and 158.155 and 125.713
Mice [1]; Dose 0.2 mg/kg
  tail flick response normalised to baseline (Figure4a), individual animals: 215.281 and 170.849 and 208.757 and 269.409 and 238.025
Mice [1]; Dose 0.5 mg/kg
  tail flick response normalised to baseline (Figure4a), individual animals: 229.386 and 270.644 and 271.701 and 225.86 and 268.175
Mice [1]; WT mice
  analgesic response normalised to baseline, WT vs CB1R KO (Figure5d), individual animals: 175.053 and 136.358 and 121.523 and 181.234 and 162.69 and 195.08 and 109.284 and 151.687 and 140.809 and 142.663
  Response relative to Baseline, individual animals (FigS11c): 303.35 and 281.096 and 250.176 and 198.641 and 149.684 and 198.173 and 421.644 and 117.592 and 166.55 and 75.1933
Mice [1]; i.p., 30 min after injection
  lowest dose with significantly increased tail flick latency: 0.1 mg/kg
Mice [2]; Dose 0.1 mg/kg
  rotarod performance (Figure6b), individual animals: 275 and 300
Mice [2]; Dose 0.2 mg/kg
  rotarod performance (Figure6b), individual animals: 300 and 226 and 231 and 240 and 274 and 298 and 237 and 211
Mice [2]; Dose 0.5 mg/kg
  rotarod performance (Figure6b), individual animals: 123 and 300 and 128 and 153
Mice [2]
  dose showing locomotor deficits or sedation, rotarod: 0.5 mg/kg
Mice [3]; Dose 0.05 mg/kg
  acetone test response after spared nerve injury (Figure5b), individual animals: 48 and 66 and 108 and 56 and 46
Mice [3]; Dose 0.1 mg/kg
  acetone test response after spared nerve injury (Figure5b), individual animals: 38 and 48 and 28 and 64 and 18
Mice [3]; Dose 0.2 mg/kg
  acetone test response after spared nerve injury (Figure5b), individual animals: 26 and 54 and 32
Mice [3]; i.p.
  lowest dose with significant anti-allodynia, acetone test: 0.05 mg/kg
  effect on acetone-induced nocifensive behaviors: strongly reduced spared nerve injury-induced cold allodynia

## Cc1cc(C(=O)NC(C)(c2ccco2)c2ccco2)nn1-c1cccc(C(F)(F)F)c1 [‘4936]
Mice [2]; Dose 0.2 mg/kg
  rotarod performance (Figure6b), individual animals: 300 and 283
Mice [2]; Dose 0.5 mg/kg
  rotarod performance (Figure6b), individual animals: 300 and 234 and 278 and 166 and 268 and 275 and 273
Mice [2]; Dose 1.0 mg/kg
  rotarod performance (Figure6b), individual animals: 201 and 300 and 258 and 267 and 295 and 215 and 252 and 282 and 235
Mice [2]; Dose 2.0 mg/kg
  rotarod performance (Figure6b), individual animals: 298 and 90 and 300 and 163 and 260
Mice [2]
  dose showing locomotor deficits or sedation, rotarod: 2 mg/kg
Mice [3]; Dose 0.2 mg/kg
  acetone test response after spared nerve injury (Figure5b), individual animals: 92 and 82 and 36 and 30 and 65
Mice [3]; i.p.
  effect on acetone-induced nocifensive behaviors: strongly reduced spared nerve injury-induced cold allodynia

## Cc1nc(CC2CC2)oc1-c1nc(Cc2cc3c(cc2Br)OCO3)no1 [‘7019]
AmpC β-lactamase; uM 0
  AmpC inhibition: 0
AmpC β-lactamase; uM 1
  AmpC inhibition: 0
AmpC β-lactamase; uM 1.49996
  AmpC inhibition: 27.6
AmpC β-lactamase; uM 2
  AmpC inhibition: 55.1
AmpC β-lactamase; uM -0.500011
  AmpC inhibition: 0
AmpC β-lactamase; uM -1
  AmpC inhibition: 0
Malate dehydrogenase; uM 0
  MDH inhibition: 0
Malate dehydrogenase; uM 1
  MDH inhibition: 0
Malate dehydrogenase; uM 1.49996
  MDH inhibition: 13.7
Malate dehydrogenase; uM 2
  MDH inhibition: 16.9
Malate dehydrogenase; uM -0.500011
  MDH inhibition: 0
Malate dehydrogenase; uM -1
  MDH inhibition: 0

## COC(=O)C(C)(NC(=O)c1cc(C)n(-c2cccc(C(F)(F)F)c2)n1)c1cccs1 (stereo not shown) [‘4042]
Mice [1]; '4042 0.05 mg/kg, 0.05 mg/kg
  Response relative to baseline (baseline about 100): 262 and 191 and 164 and 198 and 183
Mice [1]; '4042 0.1 mg/kg, 0.1 mg/kg
  Response relative to baseline (baseline about 100): 419.4 and 155.9 and 181.4 and 122.5 and 239.8
hCB2 [4]
  BRET2 + GoA pEC50: 8.1 [7.4 – 8.8]
hCB2 [4]; HEK-293T
  Emax: 29%
hCB2 [4]; M = -5.52
  functional response, concentration-response point (FigS7e, normalized): 35.163 and 34.5195 and 37.1398 and 45.2359 and 22.1885 and 20.0253 and 22.0647 and 22.44 and 27.1274 and 29.7176 and 29.0627 and 31.2724
hCB2 [4]; M = -6
  functional response, concentration-response point (FigS7e, normalized): 29.7877 and 33.9492 and 29.5334 and 25.2255 and 15.8228 and 16.2963 and 15.9211 and 20.153 and 25.0506 and 24.2718 and 28.0892 and 24.4694
hCB2 [4]; M = -6.52
  functional response, concentration-response point (FigS7e, normalized): 26.0116 and 28.0846 and 25.607 and 31.5062 and 14.9093 and 14.0547 and 17.0527 and 13.1077 and 21.8115 and 21.8852 and 20.2922 and 24.9916
hCB2 [4]; M = -7
  functional response, concentration-response point (FigS7e, normalized): 24.1274 and 22.8405 and 29.7761 and 21.8695 and 14.0743 and 11.9997 and 13.5282 and 12.4358 and 19.7258 and 19.481 and 19.1064 and 19.4486
hCB2 [4]; M = -7.52
  functional response, concentration-response point (FigS7e, normalized): 23.5957 and 22.9137 and 20.3707 and 18.5906 and 11.4339 and 9.937 and 10.3691 and 10.8406 and 16.0355 and 14.8408 and 13.0297 and 14.2214
hCB2 [4]; M = -8
  functional response, concentration-response point (FigS7e, normalized): 12.8343 and 12.3797 and 11.0928 and 9.008 and 8.006 and 4.9629 and 4.745 and 4.187 and 11.3719 and 9.991 and 9.086 and 7.272
hCB2 [4]; M = -8.52
  functional response, concentration-response point (FigS7e, normalized): 3.796 and 2.717 and 4.595 and 4.6603 and 1.822 and 2.459 and 1.412 and 2.158 and 3.296 and 4.616 and 3.0209 and 3.939
hCB2 [4]; M = -11.52
  functional response, concentration-response point (FigS7e, normalized): -0.1711 and -0.00125 and 0.5633 and 1.428
hCB2 [4]; M = -12
  functional response, concentration-response point (FigS7e, normalized): 0.1237 and -0.6757 and -0.301 and 0.8531 and -0.1904 and 0.4719 and -0.17 and -0.1114 and 0.2132 and -0.01243 and 0.1138 and -0.3146
hCB2 [5]; HTLA, read-out: Tango ß-arrestin recruitment Emax
  Emax: 28%
hCB2 [5]
  Tango ß-arrestin recruitment pEC50: 7.5 [7.2 – 7.7]
hCB2 [5]; read-out: Tango ß-arrestin recruitment EC50
  EC50: 33.9 nM

## COC(=O)[C@](C)(NC(=O)c1cc(C)n(-c2cccc(C(F)(F)F)c2)n1)c1cccs1 [‘8690]
CB1R
  bimane spectrum λmax: 459 nm
